Measured values reported in the CheMixHub viscosity set.

Experiment: xn = mol fraction of the nth substance listed

CCCC[P+](CCCC)(CCCC)CCCC.[Br-] + O
Settings | viscosity [mPa·s]
308.15 K, 101 kPa, x1 = 0.08254 | 6.085

CNC(C)=O + O
viscosity [mPa·s]
Settings | 303.18 K | 308.15 K | 313.15 K | 318.15 K
101 kPa, x2 = 0.0402 | 3.71 | – | – | –
101 kPa, x2 = 0.1032 | 3.81 | – | – | –
101 kPa, x2 = 0.2124 | 4.02 | – | – | –
101 kPa, x2 = 0.3814 | 4.33 | – | – | –
101 kPa, x2 = 0.455 | 4.42 | – | – | –
101 kPa, x2 = 0.5528 | 4.37 | – | – | –
101 kPa, x2 = 0.7092 | 3.7 | – | – | –
101 kPa, x2 = 0.8121 | 2.89 | – | – | –
101.33 kPa, x1 = 0.0301 | – | 0.997 | 0.893 | 0.812
101.33 kPa, x1 = 0.06 | – | 1.293 | 1.137 | 1.026
101.33 kPa, x1 = 0.1002 | – | 1.693 | 1.465 | 1.301
101.33 kPa, x1 = 0.15 | – | 2.24 | 1.902 | 1.651
101.33 kPa, x1 = 0.1999 | – | 2.766 | 2.326 | 2.001
101.33 kPa, x1 = 0.245 | – | 3.108 | 2.626 | 2.257
101.33 kPa, x1 = 0.3006 | – | 3.402 | 2.882 | 2.483
101.33 kPa, x1 = 0.3502 | – | 3.597 | 3.063 | 2.646
101.33 kPa, x1 = 0.4012 | – | 3.748 | 3.198 | 2.769
101.33 kPa, x1 = 0.4501 | – | 3.852 | 3.3 | 2.859
101.33 kPa, x1 = 0.5 | – | 3.921 | 3.37 | 2.914
101.33 kPa, x1 = 0.5502 | – | 3.942 | 3.398 | 2.938
101.33 kPa, x1 = 0.6018 | – | 3.906 | 3.382 | 2.928
101.33 kPa, x1 = 0.655 | – | 3.825 | 3.327 | 2.894
101.33 kPa, x1 = 0.7019 | – | 3.765 | 3.281 | 2.869
101.33 kPa, x1 = 0.7551 | – | 3.688 | 3.226 | 2.832
101.33 kPa, x1 = 0.807 | – | 3.606 | 3.167 | 2.797
101.33 kPa, x1 = 0.845 | – | 3.554 | 3.13 | 2.768
101.33 kPa, x1 = 0.9015 | – | 3.495 | 3.077 | 2.733
101.33 kPa, x1 = 0.95 | – | 3.44 | 3.044 | 2.703

C=C(C)C(=O)OCCO + O=C1CCCCC1
viscosity [mPa·s], 101 kPa
Settings | x2 = 0.1 | x2 = 0.2 | x2 = 0.3 | x2 = 0.4 | x2 = 0.5 | x2 = 0.6 | x2 = 0.6999 | x2 = 0.8 | x2 = 0.9
298.15 K | 5.035 | 4.22 | 3.579 | 3.213 | 2.928 | 2.661 | 2.319 | 2.089 | 2.06
308.15 K | 3.747 | 3.184 | 2.768 | 2.512 | 2.282 | 2.045 | 1.856 | 1.707 | 1.695
318.15 K | 2.881 | 2.474 | 2.2 | 2.012 | 1.853 | 1.678 | 1.54 | 1.439 | 1.421

CCOCCO + O=C1CCCCC1
298.15 K, 101 kPa
Settings | viscosity [mPa·s]
x2 = 0.0926 | 1.684
x2 = 0.1867 | 1.587
x2 = 0.2824 | 1.529
x2 = 0.3797 | 1.494
x2 = 0.4787 | 1.469
x2 = 0.5793 | 1.472
x2 = 0.6818 | 1.506
x2 = 0.786 | 1.564
x2 = 0.892 | 1.691

CCOCCO + O=C1CCCO1
303.15 K, 101.33 kPa
Settings | viscosity [mPa·s]
x1 = 0.0345 | 1.722
x1 = 0.0509 | 1.708
x1 = 0.0767 | 1.687
x1 = 0.1125 | 1.658
x1 = 0.2033 | 1.603
x1 = 0.3137 | 1.561
x1 = 0.4404 | 1.544
x1 = 0.5421 | 1.538
x1 = 0.6504 | 1.535
x1 = 0.8807 | 1.541
x1 = 0.9372 | 1.538
x1 = 0.9693 | 1.553

CNC(C)=O + O=C1CCCO1
viscosity [mPa·s], 101 kPa
Settings | x1 = 0.0549 | x1 = 0.1816 | x1 = 0.2715 | x1 = 0.3602 | x1 = 0.4477 | x1 = 0.5352 | x1 = 0.6411 | x1 = 0.7239 | x1 = 0.9033
303.15 K | 1.516 | 1.586 | 1.642 | 1.719 | 1.82 | 1.99 | 2.215 | 2.45 | 3.147
308.15 K | 1.408 | 1.452 | 1.51 | 1.572 | 1.662 | 1.78 | 1.979 | 2.178 | 2.799
313.15 K | 1.338 | 1.343 | 1.393 | 1.447 | 1.521 | 1.626 | 1.805 | 1.967 | 2.515
318.15 K | 1.213 | 1.247 | 1.281 | 1.334 | 1.403 | 1.514 | 1.665 | 1.8 | 2.226

Oc1ccc(Cl)cc1 + O=Cc1ccccc1
308.15 K, 101.33 kPa
Settings | viscosity [mPa·s]
x2 = 0.11 | 5.75
x2 = 0.304 | 3.8
x2 = 0.485 | 3.01
x2 = 0.56 | 2.495
x2 = 0.62 | 2.2
x2 = 0.728 | 1.79
x2 = 0.907 | 1.388

CCOCCO + O=S1(=O)CCCC1
303.15 K
Settings | viscosity [mPa·s]
101 kPa, x2 = 0.0459 | 1.145
101 kPa, x2 = 0.1045 | 0.887
101 kPa, x2 = 0.1957 | 0.692
101 kPa, x2 = 0.2957 | 0.877
101 kPa, x2 = 0.3504 | 1.721
101 kPa, x2 = 0.3966 | 2.176
101 kPa, x2 = 0.4471 | 2.684
101 kPa, x2 = 0.4987 | 3.644
101 kPa, x2 = 0.5514 | 4.636
101 kPa, x2 = 0.5999 | 5.66
101 kPa, x2 = 0.6984 | 6.898
101 kPa, x2 = 0.8002 | 8.224
101 kPa, x2 = 0.8997 | 9.136
101.33 kPa, x1 = 0.042 | 8.909
101.33 kPa, x1 = 0.0712 | 7.997
101.33 kPa, x1 = 0.109 | 7.117
101.33 kPa, x1 = 0.1849 | 5.742
101.33 kPa, x1 = 0.2899 | 4.443
101.33 kPa, x1 = 0.3942 | 3.612
101.33 kPa, x1 = 0.5561 | 2.759
101.33 kPa, x1 = 0.6236 | 2.472
101.33 kPa, x1 = 0.6586 | 2.349
101.33 kPa, x1 = 0.7385 | 2.108
101.33 kPa, x1 = 0.7622 | 2.027
101.33 kPa, x1 = 0.8406 | 1.843
101.33 kPa, x1 = 0.9162 | 1.688
101.33 kPa, x1 = 0.9539 | 1.619

CCOCCO + O=[N+]([O-])c1ccccc1
298.15 K, 101 kPa
Settings | viscosity [mPa·s]
x2 = 0.0476 | 1.852
x2 = 0.1095 | 1.858
x2 = 0.2104 | 1.873
x2 = 0.3134 | 1.893
x2 = 0.4103 | 1.916
x2 = 0.4566 | 1.925
x2 = 0.5011 | 1.932
x2 = 0.5459 | 1.936
x2 = 0.6004 | 1.94
x2 = 0.7008 | 1.937
x2 = 0.8017 | 1.921
x2 = 0.8989 | 1.887
x2 = 0.9525 | 1.853

Cc1cccc(Cl)c1 + OC1CCCCC1
303.15 K, 101 kPa
Settings | viscosity [mPa·s]
x2 = 0.1126 | 5.006
x2 = 0.222 | 9.158
x2 = 0.3285 | 13.26
x2 = 0.4321 | 17.37
x2 = 0.533 | 21.44
x2 = 0.6313 | 25.48
x2 = 0.727 | 29.41
x2 = 0.8203 | 33.31
x2 = 0.9113 | 37.2

CC(C)CCO + OCC(O)CO
viscosity [mPa·s], 100 kPa
Settings | x1 = 0.0692 | x1 = 0.1425 | x1 = 0.2195 | x1 = 0.3027 | x1 = 0.3954 | x1 = 0.498 | x1 = 0.6042 | x1 = 0.7235 | x1 = 0.8535
298.15 K | 879.2 | 810.7 | 738.6 | 660.6 | 573.7 | 477.4 | 377.4 | 265 | 142.2
303.15 K | 583.7 | 540.5 | 494.2 | 443.9 | 387.3 | 323.9 | 257.5 | 181.7 | 97.82
308.15 K | 389.9 | 363 | 333.5 | 301.1 | 263.5 | 220.7 | 175.6 | 123.8 | 67.02
